Reference: patent US11203757B2, “Use of Rad18 inhibitors in the treatment of tumors” (Centre National De La Recherche Scientifique, priority 2014, dated 2021)

Experiments:
Assay type in all cases: cell-based
[1] = test system: U87-MG glioblastoma cells; experiment: CellTiter-Glo cell viability of U87-MG cells treated with P2207; conditions: indicated doses of P2207, 48 h post-treatment, FIG. 7
Protocol: FIG. 7. […] Survival curves of U87-MG glioblastoma cells treated with the indicated doses of the USP7 inhibitor P2207 (Sigma-Aldrich), or DMSO as a control. Means and standard deviations are shown (n=3). Cell viability is expressed as percent (%) of viability compared to the control (DMSO).
Cells were plated at 1.0×10^4 cells/well in 12-well plates and exposed to the indicated amount of P2207 inhibitor (Sigma) or DMSO as control. 48 h post-treatment, cell viability was determined using the CellTiter-Glo luminescent cell viability assay (Promega).

[2] = test system: U87 glioblastoma cell line; experiment: Cell viability of U87 cells transfected with Rad18 siRNA and challenged with cisplatin; conditions: U87 cells co-transfected with siRNA and empty vector, increasing cisplatin, CellTiter-Glo; rescued by re-expression of Rad18
Excerpt: (E) Survival curves of U87 glioblastoma cells co-transfected with empty vector and non-specific siRNA (siLuc+EV), or Rad18-specific siRNA and empty vector (siRad18+EV) and rescued by co-transfection with Rad18 (siRad18+Rad18), challenged with the indicated doses of cisplatin (CisPt) normalized to non-treated cells (mock). Means and standard deviations are shown (n=3).
U87 cells were co-transfected either with siRNA Rad18 (GAG GAU UCU UCU AGC UGU A; SEQ ID NO:3) or siRNA Luciferase (Luc) as a control and an empty vector (pcDNA3) or Rad18 expressing vector using JETPrime reagent (Polyplus). Twenty-four hours after transfection, cells were trypsinized and seeded in 12 wells plates at a density of 10 000 cells/well. Twenty-four hours later cells were treated with increasing concentration of cisplatin (Sigma).
Cells were plated at 1×10^4 per well in twelve-well plates and UV-irradiated or exposed to the indicated amount of cisplatin (CisPt, Sigma). 48 hours after irradiation, cell viability was determined using the CellTiter-Glo® Luminescent Cell Viability assay (Promega).

[3] = test system: Gb4 glioblastoma cancer stem cells; experiment: Proliferation of gliospheres after Rad18 siRNA treatment; conditions: 72 hours post-treatment, absence of external damage, versus control siRNA (siLuc)
Protocol: FIG. 6. Rad18 downregulation affects the proliferation of glioblastoma cancer stem cells in the absence of external damage. (A) Western blot of Gb4 glioblastoma cancer stem cells extracts treated with control siRNA (siLuc, lane 1), or a Rad18-specific siRNA (siRad18, lane 2) analysed 72 hours post-treatment. Extracts were probed with anti-Rad18 or anti-PCNA antibodies. (B) Phase contrast microscopy images of gliospheres treated with control siRNA or Rad18-specific siRNA 72 hours post-treatment. (C) Quantification of gliospheres proliferation upon downregulation of Rad18 expression expressed as number of cells. Glioblastoma cancer stem cells extracts were treated as described in panel A and cells were counted before (0 h) or 72 hours post-treatment (72 h).
Glioblastoma cancer stem cells (Gliospheres, Gb4 and Gb7 cell lines) were isolated from patients as described in Clarion et al, 2014.
Cells were maintained in DMEM-F12 (Lonza, Levallois-Perret, France) supplemented with B27 and N2 (Invitrogen, LifeTechnologies, Saint Aubin, France), 25 ng/ml of FGF-2 and EGF (Peprotech, Neuilly sur Seine, France) at 37° C. in 5% CO2 humidified incubators.
Gb4 glioblastoma cancer stem cells extracts, treated with control siRNA or a Rad18-specific siRNA (SEQ ID NO:3) were analysed 72 hours post-treatment. […]

Row | Compound | sensitization of glioblastoma to cisplatin treatment (cell viability, % of DMSO control) [1] | sensitivity to cisplatin (cell viability) [2] | proliferation of gliospheres (number of cells) [3]
1 | CC(=O)c1cc([N+](=O)[O-])c(Sc2ccc(F)cc2F)s1 [P2207] | sensitizes glioblastoma to cisplatin treatment |  | 
2 | GAG GAU UCU UCU AGC UGU A (GAGGAUUCUUCUAGCUGUA; listed as RNA, chemistry not given here) [Rad18-specific siRNA] |  | strong sensitivity to cisplatin | affect the proliferation of gliospheres
